Read-outs that look alike come from different tables or passages of the source.
Experiments:
DRN 5-HT neurons [1] = assay: Extracellular single-unit recordings of DRN 5-HT neuron mean firing rate in anaesthetized rats; type: in vivo, rat
[2] = tested on: hippocampal CA3 pyramidal neurons; assay: Acute i.v. prucalopride on firing of hippocampal CA3 pyramidal neurons, with microiontophoresis; type: in vivo, rat; details: GR 125487 1000 μg/kg i.v.
Protocol: FIGS. 9A to 9D. FIGS. 9A and 9C show a typical example (integrated firing rate histogram) of the response of a single hippocampal pyramidal neuron of the CA3 sub-field to an acute, intravenous administration of the selective 5-HT4 agonist prucalopride (1000 μg/kg), and its reversal by local, microiontophoretic application of the selective 5-HT1A antagonist WAY 100635 (A), or systemic injection of the selective 5-HT4 antagonist GR 125487 (1000 μg/kg, i.v.) (C). Single-cell extracellular recordings were performed in the CA3 region of chloral-hydrate anaesthetized rats by using multiple-barrel glass microelectrodes, combined with microiontophoretic pumps (with the central barrel used for recordings). Pyramidal neurons were identified according to the classical criteria (see Example 5, experimental procedures). FIGS. 9B and 9D show a summary of the effects as for FIGS. 9A and 9C, respectively. Bar histograms represent the mean (S.E.M.) percentage effect, calculated for each neuron with respect to its basal firing rate (i.e. 100% value), and the number in each column represents the number of neurons tested. *p<0.05 vs basal value, one-way ANOVA.
Microiontophoresis and extracellular recordings from hippocampal CA3 pyramidal neurons. Recording and microiontophoresis were performed with five-barreled glass micropipettes broken back to 8-12 μm under microscope control. The central barrel was filled with the same solution as in the DRN and was used for extracellular unitary recordings. Pyramidal neurons were identified by their large amplitude (0.5-1.2 mV) and long-duration (0.8-1.2 ms) simple spikes alternating with complex spike discharges (Kandel and Spencer, 1961). The side barrels contained the following solutions: quisqualate (1.5 mM in 200 mM NaCl, pH 8), WAY 100635 (15 mM in 200 mM NaCl, pH 4), and 2 M NaCl used for automatic current balancing. Rats were mounted in the stereotaxic apparatus and the micropipettes were lowered at 4.2 mm lateral and 4.2 anterior to lambda into the CA3 sub-region of the dorsal hippocampus.
Involvement of endogenous 5-HT and hippocampal 5-HT1A receptors in the effect of 5-HT4 agonists. […] This interpretation is consistent with our own previous findings, showing that both acute and chronic (3-day) administration of the same compounds augment DRN 5-HT neuronal firing activity (Lucas and Debonnel, 2002; Lucas et al., 2005). It is also in keeping with observations from a single in vivo microdialysis study, where acute systemic injection of preferential 5-HT4 agonists increased hippocampal 5-HT efflux (Ge and Barnes, 1996). To further address this possibility, two additional series of experiments were conducted. First, the role of endogenous 5-HT was assessed by using the same protocol as above, in rats co-treated with RS 67333 (or its vehicle) and the 5-HT depleter para-chlorophenylalanine (pCPA). […] The ejection currents of quisqualate needed to activate CA3 pyramidal neurons were, in this case, similar to those used in controls (0 to −2 nA, FIG. 8C). We then tested the ability of a local application of WAY 100635, directly into the CA3 subfield through the use of microiontophoresis, to modify the effect of a 5-HT4 agonist. We chose not to use the previous protocol (i.e. chronic treatments), because, as shown above, the required quisqualate currents differ between the experimental groups. Even though all currents were balanced, it was not possible to exclude the possibility that the amount of quisqualate present in the vicinity of the electrode may have an influence on the quantity of WAY 100635 actually ejected, and/or on its ability to act on pyramidal neurons. For this reason, prucalopride was used acutely in naïve rats, at a dose known to induce a significant augmentation of DRN 5-HT neuronal activity (1000 μg/kg, i.v.) (Lucas and Debonnel, 2002). […]

[3] = tested on: BrdU-positive cells in the sub-granular zone (SGZ) of the hippocampus; details: cited from earlier work
DRN 5-HT neurons [4] = assay: Reversal by acute prucalopride of the inhibition of DRN 5-HT neuron firing rate induced by i.v. SSRIs; type: in vivo, rat; details: acute intravenous administration
Text: FIGS. 6A and 6B illustrate the effect of prucalopride on the inhibition of 5-HT neuronal firing rate induced by SSRIs fluxoamine and citalopram.
In FIGS. 6A and 6B, the firing activity of the 5-HT neuron is suppressed following the acute intravenous administration of the antidepressant SSRIs fluvoxamine and citalopram. This suppression of the firing activity is due to the activation of the 5-HT1A autoreceptors, subsequent to the increase of the concentration of endogenous 5-HT, following the blockade of the 5-HT reuptake sites.

DRN 5-HT neurons [5] = details: cited from earlier work

COc1[nH]c2ccc(F)cc2c1C(=O)OCC1CCN(CCNS(C)(=O)=O)CC1 [GR 125487]
effect of GR 125487 on the facilitory effect of 3-day prucalopride or RS 67333 on DRN 5-HT firing rate (DRN 5-HT neurons [1]; GR 125487 acute i.v., tracks from 30 min after injection): totally suppressed
effect of GR 125487 on its own on 5-HT neuronal activity (DRN 5-HT neurons [1]; acute i.v., control rats): small, non statistically significant
effect of GR 125487 on the action of prucalopride [2]: abolished

CNCCC(Oc1ccc(C(F)(F)F)cc1)c1ccccc1 (stereo not drawn) [fluoxetine]
increase of hippocampal neurogenesis ([3]; 14-day treatment, Malberg et al., 2000): +35%
quickest effect reported on hippocampal neurogenesis ([3]; Santarelli et al., 2003): 11 days
activity on hippocampal neurogenesis ([3]; at 5 days, Santarelli et al., 2003): inactive

COCCCC/C(=N\OCCN)c1ccc(C(F)(F)F)cc1 [fluvoxamine]
firing activity of the 5-HT neuron after SSRI (DRN 5-HT neurons [4]): suppressed

CN1CCN2c3ncccc3Cc3ccccc3C2C1 (stereo not drawn) [mirtazapine]
effect on 5-HT neuron firing rate (DRN 5-HT neurons [5]; acute conditions, Haddjeri et al., 1996): increases
effect on 5-HT neuron firing rate (DRN 5-HT neurons [5]; after a 2-day treatment, Besson et al., 2000): no longer present
